The values below come from the RepoRT retention time repository (doi:10.1016/j.foodchem.2021.129757).

Common to all, as to settings: stereoisomer not certain
Data set [1] can be described thus: RP, Agilent ZORBAX RRHD Eclipse Plus C18, 50 × 2.1 mm, 1.8 µm, 30 °C, 0.4 mL/min, estimated dead time 0.28 min; A: water + 0.1% formic acid, pH 3; B: acetonitrile + 0.1% formic acid, pH 3; gradient (min/%B) 0/1 5/10 8/25 9.1/99 10/99 12/1.
A short description of data set [2]: RP, 150 × 2.1 mm, 2.6 µm, 40 °C, 0.35 mL/min, estimated dead time 0.94 min; A: water + 0.1% formic acid, pH 3; B: acetonitrile + 0.1% formic acid, pH 3; gradient (min/%B) 0/0 1/0 12.5/100 14/100 14.2/0 15/0.
A short description of data set [3]: RP, 150 × 2.1 mm, 2.6 µm, 40 °C, 0.35 mL/min, estimated dead time 0.94 min; A: water + 0.1% formic acid, pH 3; B: acetonitrile + 0.1% formic acid, pH 3; gradient (min/%B) 0/0 1/5 7/45 8.5/80 10.5/80 11/5 12/5.
The nature of data set [4]: RP, Agilent ZORBAX RRHD Eclipse Plus C18, 50 × 2.1 mm, 1.8 µm, 30 °C, 0.4 mL/min, estimated dead time 0.28 min; A: water + 0.1% formic acid, pH 3; B: acetonitrile + 0.1% formic acid, pH 3; gradient (min/%B) 0/1 5/10 8/25 9.1/99 10/99 12/99.
A short description of data set [5]: RP, Agilent ZORBAX Eclipse XDB-C18, 100 × 2.1 mm, 1.8 µm, 50 °C, 0.4 mL/min, estimated dead time 0.55 min; A: water + 0.1% formic acid, pH 3; B: methanol + 0.1% formic acid, pH 3; gradient (min/%B) 0/2 10/100 14.5/100 14.51/2 16.5/2.
Data set [6] can be described thus: RP, Waters ACQUITY UPLC BEH C18, 100 × 2.1 mm, 1.7 µm, 65 °C, 0.4 mL/min, estimated dead time 0.55 min; A: water + 0.1% formic acid, pH 3; B: 80% acetonitrile + 20% acetone + 0.1% formic acid, pH 3; gradient (min/%B) 0/0 5/100 5.5/0 6/0.
Data set [7] is described as follows: RP, Waters ACQUITY UPLC HSS T3, 100 × 2.1 mm, 50 °C; A: water + 0.1% formic acid, pH 3; B: 30% methanol + 70% acetonitrile + 0.1% formic acid, pH 3; gradient (min/%B) 0/5 1/8 2/15 3/40 4/70 4.5/100 5/100 6.4/100 6.6/5 6.8/5 7/5.
A short description of data set [8]: RP, Phenomenex Kinetex EVO C18, 100 × 2.1 mm, 2.6 µm, 40 °C, 0.4 mL/min, estimated dead time 0.55 min; A: water + 0.2% formic acid; B: acetonitrile + 0.2% formic acid; gradient (min/%B) 0/5 0.5/5 7/95 8/95 8.5/5 12/5.
The nature of data set [9]: RP, Phenomenex Synergi Hydro-RP, 250 × 2 mm, 4 µm, 25 °C, 0.2 mL/min, estimated dead time 2.5 min; A: water + 0.1% formic acid, pH 3; B: acetonitrile + 0.1% formic acid, pH 3; gradient (min/%B) 0/0.5 7/0.5 12/12.5 25/16.3 47/35 48/65 50/65 50.1/0.5.
A short description of data set [10]: RP, Waters ACQUITY UPLC BEH Shield RP18, 150 × 2.1 mm, 1.7 µm, 40 °C, 0.4 mL/min, estimated dead time 0.83 min; A: water + 0.1% formic acid, pH 3; B: acetonitrile + 0.1% formic acid, pH 3; gradient (min/%B) 0/0 30/50 31/100 37/100 37.1/0.

In the case of `O=C(O)CNC(=O)c1ccccc1O` [2-Hydroxyhippuric acid], the LC retention time is 6.83 min in data set [1], 5.5 min in data set [2], 5.38 min in data set [3] and 6.69 min in data set [4].
In the case of `O=C(O)CCc1c[nH]c2ccccc12` [3-Indolepropionic acid], the LC retention time is 5.54 min in [5]; 2.64 min in data set [6]; 7.09 min in data set [2]; 7.34 min in data set [3]; 3.76 min in [7].
As to `O=C1CCC(Cc2ccc(O)c(O)c2)O1` (stereo unspecified) [5-(3',4'-Dihydroxyphenyl)-gamma-valerolactone], the LC retention time in data set [8] was 4.13 min.
Turning to `O=C1CCC(Cc2cc(O)cc(O)c2)O1` (stereo unspecified) [5-(3',5'-Dihydroxyphenyl)-gamma-valerolactone], the LC retention time in [8] was 3.72 min.
On the same count and under the same terms, the figure for `O=C1CCC(Cc2ccc(O)c(OS(=O)(=O)O)c2)O1` (stereo unspecified) [5-(4'-Hydroxyphenyl)-gamma-valerolactone-3'-sulfate] is 4.64 min; for `O=C1CCC(Cc2cc(O)cc(OC3OC(C(=O)O)C(O)C(O)C3O)c2)O1` (stereo unspecified) [5-(5'-Hydroxyphenyl)-gamma-valerolactone-3'-glucuronide] it is 2.34 min; for `O=C1CCC(Cc2cccc(OC3OC(C(=O)O)C(O)C(O)C3O)c2)O1` (stereo unspecified) [5-Phenyl-gamma-valerolactone-3'-glucuronide] it is 4.31 min.
Take `O=C1CCC(Cc2cccc(OS(=O)(=O)O)c2)O1` (stereo unspecified) [5-Phenyl-gamma-valerolactone-3'-sulfate]: the LC retention time in data set [8] was 4.96 min.
As to `O=C(NC(O)C(=O)O)c1ccccc1` (stereo not drawn) [Alpha-hydroxyhippuric acid], the LC retention time was 2.97 min in data set [1], 3.62 min in data set [2], 3.34 min in [3] and 1.37 min in data set [4].
As to `COc1cc(C=CC(=O)NCC(=O)O)ccc1O` [Feruloylglycine], in data set [8], the LC retention time was 4.33 min.
On the same count and under the same terms, the figure for `O=C(O)c1ccc(OC2OC(C(=O)O)C(O)C(O)C2O)cc1` (stereo unspecified) [Hydroxybenzoic acid-4-glucuronide] is 1.06 min; for `O=C(O)c1ccc(OS(=O)(=O)O)cc1` [Hydroxybenzoic acid-4-sulfate] it is 2.55 min.
As to `COc1cc(-c2oc3cc(O)cc(O)c3c(=O)c2O)ccc1OC1OC(C(=O)O)C(O)C(O)C1O` (stereo unspecified) [Isorhamnetin 4'-O-glucuronide], the LC retention time in data set [2] is 6.03 min; in data set [3] it was 6.21 min; in [7], 3.58 min.
For the compound `COc1ccc(C(=O)O)cc1OC1OC(C(=O)O)C(O)C(O)C1O` (stereo unspecified) [Isovanillic acid-3-glucuronide], the LC retention time in data set [8] is 2.34 min.
On to `CC1OC(OCC2OC(Oc3c(-c4ccc(O)cc4)oc4cc(O)cc(O)c4c3=O)C(O)C(O)C2O)C(O)C(O)C1O` (stereo unspecified) [Kaempferol 3-O-rutinoside], for which the LC retention time in data set [9] is 37 min; in data set [2], 5.78 min; in data set [3] it was 5.92 min.
In the case of `O=c1c(OC2OC(CO)C(O)C(O)C2O)c(-c2ccc(O)cc2)oc2cc(O)cc(O)c12` (stereo unspecified) [Kaempferol-3-O-glucoside], the values for the LC retention time in data set [2], in [3] and in [10] were 5.95 min, 6.11 min and 14.7 min, respectively.
For `O=C1CC(c2ccc(OC3OC(C(=O)O)C(O)C(O)C3O)cc2)Oc2cc(O)cc(O)c21` (stereo unspecified) [Naringenin-4'-O-glucuronide], the LC retention time in data set [8] was 5.18 min.
On to `O=C1CC(c2ccc(O)cc2)Oc2cc(OC3OC(C(=O)O)C(O)C(O)C3O)cc(O)c21` (stereo unspecified) [Naringenin-7-O-glucuronide], for which the LC retention time in data set [8] is 5.12 min.
Take `O=C(O)c1ccc(OC2OC(C(=O)O)C(O)C(O)C2O)c(O)c1` (stereo unspecified) [Protocatechuic acid-4-glucuronide]: the LC retention time in data set [8] is 1.03 min.
Take `O=C(O)c1ccc(O)c(OS(=O)(=O)O)c1` [protocatechuic acid-3-O-sulfate]: in data set [8], the LC retention time is 2.38 min.
